Laboratory results reported in paper PMC9583322, “Vicinal Diaryl-Substituted Isoxazole and Pyrazole Derivatives with In Vitro Growth Inhibitory and In Vivo Antitumor Activity” (ACS Omega, 2022).

Assays:
MCF7 = assay: SRB cytotoxicity assay; type: cell-based, human; conditions: 72 h treatment
Description: (§1) HepG2, FOCUS, Hep3B, Mahlavu, Huh7, Hep40, and PLC-PRF-5 hepatocellular carcinoma cells; MCF-7, MDA-MB-231, MDA-MB-468, SKBR3, and ZR-75 breast cancer cells; and normal-like epithelial MCF-10A breast cells were cultured in low-glucose Dulbecco’s modified Eagle’s medium (DMEM) (Biological Industries-BI) supplemented with 10% fetal bovine serum (FBS) (Gibco/Thermo Fisher Scientific), 2 mM L-Glutamine (Gibco/Thermo Fisher Scientific), 100 Units/mL Penicillin/Streptomycin, and 0.1 mM non-essential amino acid (Gibco/Thermo Fisher Scientific). SNU475 hepatocellular carcinoma cells were maintained in RPMI (Biological Industries-BI) supplemented with 10% fetal bovine serum (FBS) (Gibco/Thermo Fisher Scientific), L-Glutamine (Gibco/Thermo Fisher Scientific), and 100 Units/mL Penicillin/Streptomycin, while ZR-75 breast cancer cells were cultured RPMI (Biological Industries-BI) supplemented with 10% fetal bovine serum (FBS) (Gibco/Thermo Fisher Scientific), 1× sodium pyruvate, and %4.5 glucose. Normal-like MCF-10A breast cells were sustained in DMEM/HAM’S F12 (Hyclone) supplemented with 10% fetal bovine serum (FBS) (Gibco/Thermo Fisher Scientific), EGF (20 ng/mL), Hydrocortisone ([…]), cholera toxin (100 ng/mL), insulin (10 μg/mL), and 100 Units/mL Penicillin/Streptomycin. The cells were cultivated at 37 °C in a humidified incubator under 5% CO2.
(§2) Mahlavu, FOCUS, SNU475 (1000 cell/well in 150 μL/well); Huh7, MCF7 (2500 cell/well in 150 μL/well); HepG2, Hep3B, SKBR3 (3000 cell/well in 150 μL/well); PLC-PRF-5, Hep40 (5000 cell/well in 150 μL/well); MDA-MB-231, MDA-MB-468, MCF10A (6000 cell/well in 150 μL/well); and ZR-75 (7500 cell/well in 150 μL/well) were cultured in 96-well plates and were inoculated in an incubator for 24 hours. The compounds were dissolved in dimethyl sulfoxide (DMSO) (Sigma, St Louis, MO) as a 20 mM stock solution. The treatment of cells with the compounds was done in a concentration range starting from 40 to 2.5 μM. The compounds which were below 2.5 μM were tested in a concentration range from 2.5 to 0.15 μM. End of the 72h compound treatment, the cells were fixed using 10% (v/v) trichloroacetic acid (MERCK) for an hour and washed with ddH2O, and left for air-drying. The fixed plates were stained with 50 μL of sulforhodamine B (SRB) solution (Sigma) at RT for 10 min. To remove unbound SRB dye, acetic acid was used to wash cells three times and left for drying. The protein-bound SRB was solubilized with 10 mM Tris-base (Sigma) and their absorbance was measured with a 96-well plate reader at 515 nm wavelength (ELx800, Biotek). The IC50 values of compounds were calculated in comparison with control group DMSO. Data with R^2 values larger than 0.9 are considered significant.

Huh7 = assay: SRB cytotoxicity assay; type: cell-based, human; conditions: 72 h treatment
Description: as §1, §2

Row | Compound | IC50 (MCF7) [µM] | IC50 (Huh7) [µM] | IC50 (MCF7; Homo sapiens, MCF7, 72 h) [µM] | IC50 (Huh7; Homo sapiens, Huh-7, 72 h) [µM] | melting point [°C]
1 | 5-Methyl-4-(2,4-difluoromethylphenyl)-3-(4-((2-methylbenzyl)oxy)phenyl)isoxazole [compound 52] | > 20 | 15 | – | – | –
2 | 5-Methyl-4-(3-fluoromethylphenyl)-3-(4-((2-methylbenzyl)oxy)phenyl)isoxazole [compound 50] | > 20 | 15 | – | – | –
3 | COc1ccccc1COc1ccc(-c2noc(C)c2-c2ccc(Cl)cc2)cc1 [compound 12, 4-(4-Chlorophenyl)-3-(4-((2-methoxybenzyl)oxy)phenyl)-5-methylisoxazole] | – | – | > 20 | > 20 | 156.8 to 157.7
4 | Cc1onc(-c2ccc(OCc3ccccc3OC(F)(F)F)cc2)c1-c1ccc(Cl)cc1 [compound 13, 4-(4-Chlorophenyl)-5-methyl-3-(4-((2-(trifluoromethoxy)benzyl)oxy)phenyl)isoxazole] | – | – | > 20 | 16.3 | 85.8 to 86.7
5 | Cc1onc(-c2ccc(OCc3ccccc3OC(F)F)cc2)c1-c1ccc(Cl)cc1 [compound 14, 4-(4-Chlorophenyl)-3-(4-((2-(difluoromethoxy)benzyl)oxy)phenyl)-5-methylisoxazole] | – | – | 8.5 | 13.8 | 95.5 to 96.9
6 | Cc1onc(-c2ccc(OCc3ccccc3F)cc2)c1-c1ccc(Cl)cc1 [compound 15, 4-(4-Chlorophenyl)-3-(4-((2-fluorobenzyl)oxy)phenyl)-5-methylisoxazole] | – | – | > 20 | > 20 | 119.5 to 120.9
7 | Cc1onc(-c2ccc(OCc3ccccc3Cl)cc2)c1-c1ccc(Cl)cc1 [compound 16, 4-(4-Chlorophenyl)-3-(4-((2-chlorobenzyl)oxy)phenyl)-5-methylisoxazole] | – | – | > 20 | 20 | 105.2 to 106.4
8 | Cc1onc(-c2ccc(OCc3ccccc3C#N)cc2)c1-c1ccc(Cl)cc1 [compound 17, 2-((4-(4-(4-Chlorophenyl)-5-methylisoxazol-3-yl)phenoxy)methyl)benzonitrile] | – | – | > 20 | > 20 | 111.2 to 112.5
9 | Cc1onc(-c2ccc(OCc3ccccc3C(F)(F)F)cc2)c1-c1ccc(Cl)cc1 [compound 18, 4-(4-Chlorophenyl)-5-methyl-3-(4-((2-(trifluoromethyl)benzyl)oxy)phenyl)isoxazole] | – | – | > 20 | 14.2 | 132.8 to 134.4
10 | COc1cccc(COc2ccc(-c3noc(C)c3-c3ccc(Cl)cc3)cc2)c1 [compound 20, 4-(4-Chlorophenyl)-3-(4-((3-methoxybenzyl)oxy)phenyl)-5-methylisoxazole] | – | – | 12 | 3.6 | 105.1 to 106.8
11 | Cc1onc(-c2ccc(OCc3cccc(F)c3)cc2)c1-c1ccc(Cl)cc1 [compound 21, 4-(4-Chlorophenyl)-3-(4-((3-fluorobenzyl)oxy)phenyl)-5-methylisoxazole] | – | – | > 20 | > 20 | 98.1 to 99.8
12 | Cc1onc(-c2ccc(OCc3cccc(C#N)c3)cc2)c1-c1ccc(Cl)cc1 [compound 22, 3-((4-(4-(4-Chlorophenyl)-5-methylisoxazol-3-yl)phenoxy)methyl)benzonitrile] | – | – | > 20 | 20.7 | 114.4 to 115.6
13 | COC(=O)c1cccc(COc2ccc(-c3noc(C)c3-c3ccc(Cl)cc3)cc2)c1 [compound 23, Methyl-3-((4-(4-(4-chlorophenyl)-5-methylisoxazol-3-yl)phenoxy)methyl)benzoate] | – | – | 13 | > 20 | 121.5 to 122.8
14 | COc1ccc(COc2ccc(-c3noc(C)c3-c3ccc(Cl)cc3)cc2)cc1 [compound 25, 4-(4-Chlorophenyl)-3-(4-((4-methoxybenzyl)oxy)phenyl)-5-methylisoxazole] | – | – | > 20 | > 20 | 126.1 to 127.4
15 | Cc1onc(-c2ccc(OCc3ccc(F)cc3)cc2)c1-c1ccc(Cl)cc1 [compound 26, 4-(4-Chlorophenyl)-3-(4-((4-fluorobenzyl)oxy)phenyl)-5-methylisoxazole] | – | – | 13 | 19 | 99.3 to 100.7
16 | Cc1onc(-c2ccc(OCc3ccc(C#N)cc3)cc2)c1-c1ccc(Cl)cc1 [compound 27, 4-((4-(4-(4-Chlorophenyl)-5-methylisoxazol-3-yl)phenoxy)methyl)benzonitrile] | – | – | > 20 | 11.7 | 138.5 to 139.5
17 | COC(=O)c1ccc(COc2ccc(-c3noc(C)c3-c3ccc(Cl)cc3)cc2)cc1 [compound 28, Methyl-4-((4-(4-(4-chlorophenyl)-5-methylisoxazol-3-yl)phenoxy)methyl)benzoate] | – | – | > 20 | 12.7 | 110.7 to 111.9
18 | Cc1onc(-c2ccc(OCc3ccc(C(=O)O)cc3)cc2)c1-c1ccc(Cl)cc1 [compound 29, 4-((4-(4-(4-Chlorophenyl)-5-methylisoxazol-3-yl)phenoxy)methyl)benzoic acid] | – | – | 15 | 8.6 | 210.8 to 212.4
19 | Cc1cccc(COc2ccc(-c3noc(C)c3-c3ccc(Cl)cc3)cc2)c1C [compound 30, 4-(4-Chlorophenyl)-3-(4-((2,3-dimethylbenzyl)oxy)phenyl)-5-methylisoxazole] | – | – | > 20 | 15.3 | 167.2 to 168.5
20 | Cc1ccc(COc2ccc(-c3noc(C)c3-c3ccc(Cl)cc3)cc2)c(C)c1 [compound 31, 4-(4-Chlorophenyl)-3-(4-((2,4-dimethylbenzyl)oxy)phenyl)-5-methylisoxazole] | – | – | > 20 | 10.8 | 119.7 to 122.1
21 | Cc1onc(-c2ccc(OCc3cccnc3)cc2)c1-c1ccc(Cl)cc1 [compound 32, 4-(4-Chlorophenyl)-5-methyl-3-(4-(pyridin-3-ylmethoxy)phenyl)isoxazole] | – | – | 8.3 | 7.7 | 115.5 to 116.4
22 | Cc1onc(-c2ccc(OCc3ccncc3)cc2)c1-c1ccc(Cl)cc1 [compound 33, 4-(4-Chlorophenyl)-5-methyl-3-(4-(pyridin-4-ylmethoxy)phenyl)isoxazole] | – | – | 14.5 | 11.4 | 124.2 to 125.8
23 | Cc1onc(-c2ccc(OCc3ccc4ccccc4n3)cc2)c1-c1ccc(Cl)cc1 [compound 34, 4-(4-Chlorophenyl)-5-methyl-3-(4-(quinolin-2-ylmethoxy)phenyl)isoxazole] | – | – | > 20 | 9.1 | 164.7 to 165.8
24 | Cc1ncccc1COc1ccc(-c2noc(C)c2-c2ccc(Cl)cc2)cc1 [compound 35, 4-(4-Chlorophenyl)-5-methyl-3-(4-((2-methylpyridin-3-yl)methoxy)phenyl)isoxazole] | – | – | 6.1 | 3.9 | 107.2 to 108.8
25 | Cc1cccnc1COc1ccc(-c2noc(C)c2-c2ccc(Cl)cc2)cc1 [compound 36, 4-(4-Chlorophenyl)-5-methyl-3-(4-((3-methylpyridin-2-yl)methoxy)phenyl)isoxazole] | > 20 | – | ≥ 20 | 9.4 | 138.7 to 141.2
26 | Cc1cccc(COc2ccc(-c3noc(C)c3-c3ccc(Cl)cc3)cc2)n1 [compound 37, 4-(4-Chlorophenyl)-5-methyl-3-(4-((6-methylpyridin-2-yl)methoxy)phenyl)isoxazole] | – | – | 12.9 | 6.9 | 126.1 to 127.5
27 | Cc1onc(-c2ccc(OCc3ccc(Cl)nc3)cc2)c1-c1ccc(Cl)cc1 [compound 38, 4-(4-Chlorophenyl)-3-(4-((6-chloropyridin-3-yl)methoxy)phenyl)-5-methylisoxazole] | – | – | > 20 | > 20 | 168.2 to 170.8
